Laboratory results taken from ChEMBL document CHEMBL1201862, “PubChem BioAssay data set” (2004).
Active and inactive are the calls of the source.

What was measured:
[1] = growth suppression of PTEN-null colon cells, dose response, cell-based, HCT116 PTEN knockout (AID 1047); format: functional;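 further: HCT116 colon tumor cells with PTEN knocked out; cells exposed to compound for 60 hours before readout; potency for loss of cell viability measured by luminescence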
[2] = growth suppression of beta-catenin-knockout colon cells, dose response, cell-based, HCT116, human colon tumor (AID 1045); format: functional;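 further: HCT116 colon tumor cells with beta catenin knocked out; cells exposed to compound for 60 hours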
Cytochrome P450 2C19 = Cytochrome P450 2C19 (Homo sapiens, UniProt P33261); test: Cytochrome panel assay with activity outcomes. Panel member name: p450-cyp2c19 Compounds with AC50 equal or less than 10 uM are considered active; format: functional; conditions: read-out: AC50
Sequence of Cytochrome P450 2C19 (P33261 whole entry): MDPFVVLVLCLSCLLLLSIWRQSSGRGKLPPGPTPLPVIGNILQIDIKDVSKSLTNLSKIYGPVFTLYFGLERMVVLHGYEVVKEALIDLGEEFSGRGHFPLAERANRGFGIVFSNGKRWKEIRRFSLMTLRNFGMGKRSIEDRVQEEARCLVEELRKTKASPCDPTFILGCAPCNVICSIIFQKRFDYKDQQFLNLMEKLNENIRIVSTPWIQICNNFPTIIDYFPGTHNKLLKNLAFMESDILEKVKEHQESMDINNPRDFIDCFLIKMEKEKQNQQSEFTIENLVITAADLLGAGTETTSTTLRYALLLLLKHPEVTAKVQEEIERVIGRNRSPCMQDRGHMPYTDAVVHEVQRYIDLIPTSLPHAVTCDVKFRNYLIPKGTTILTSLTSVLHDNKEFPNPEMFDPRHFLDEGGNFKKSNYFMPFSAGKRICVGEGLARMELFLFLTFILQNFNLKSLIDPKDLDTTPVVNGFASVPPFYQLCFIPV

Cytochrome P450 3A4 = Cytochrome P450 3A4 (Homo sapiens, UniProt P08684);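 further: CYP3A4 tested as one member of a cytochrome P450 panel screen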
Sequence of Cytochrome P450 3A4 (P08684 whole entry): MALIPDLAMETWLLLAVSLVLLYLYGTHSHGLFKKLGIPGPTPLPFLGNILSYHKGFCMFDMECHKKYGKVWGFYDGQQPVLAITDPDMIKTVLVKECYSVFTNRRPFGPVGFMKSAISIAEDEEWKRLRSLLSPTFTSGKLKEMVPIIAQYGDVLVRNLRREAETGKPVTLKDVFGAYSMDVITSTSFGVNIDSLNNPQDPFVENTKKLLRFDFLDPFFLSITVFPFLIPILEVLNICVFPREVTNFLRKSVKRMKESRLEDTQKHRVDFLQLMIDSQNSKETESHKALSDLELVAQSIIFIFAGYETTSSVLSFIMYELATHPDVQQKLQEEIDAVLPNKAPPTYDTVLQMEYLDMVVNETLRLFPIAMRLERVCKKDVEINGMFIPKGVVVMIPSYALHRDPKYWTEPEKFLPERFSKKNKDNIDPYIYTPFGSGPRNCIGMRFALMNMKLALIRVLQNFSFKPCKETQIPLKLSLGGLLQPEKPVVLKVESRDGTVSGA

[3] = Luminescence Cell-Based Dose Retest to Confirm Inhibitors of Cancer Stem Cells. [Related pubchem assays (depositor defined):AID2717, AID2721]; format: functional; conditions: Homo sapiens
Cytochrome P450 2C9 = Cytochrome P450 2C9 (Homo sapiens, UniProt P11712)
Sequence of Cytochrome P450 2C9 (P11712 whole entry): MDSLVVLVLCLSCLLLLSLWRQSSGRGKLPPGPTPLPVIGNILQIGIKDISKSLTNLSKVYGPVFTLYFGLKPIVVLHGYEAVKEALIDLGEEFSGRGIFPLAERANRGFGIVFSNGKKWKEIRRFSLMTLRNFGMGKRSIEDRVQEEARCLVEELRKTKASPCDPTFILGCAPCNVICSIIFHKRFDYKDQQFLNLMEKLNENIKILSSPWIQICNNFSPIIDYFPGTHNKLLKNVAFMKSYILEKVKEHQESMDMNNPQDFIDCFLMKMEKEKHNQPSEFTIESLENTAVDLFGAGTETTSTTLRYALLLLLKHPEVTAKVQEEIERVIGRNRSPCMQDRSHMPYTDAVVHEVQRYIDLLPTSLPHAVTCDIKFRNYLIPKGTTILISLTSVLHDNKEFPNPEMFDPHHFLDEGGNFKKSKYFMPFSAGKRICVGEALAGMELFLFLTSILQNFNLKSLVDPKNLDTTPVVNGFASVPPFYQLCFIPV

[4] = target: T1, Corticotropin-releasing factor receptor 2/Corticotropin-releasing factor-binding protein (Homo sapiens, UniProt P24387+Q13324); test: activators of CRF receptor 2 with binding protein – uHTS hits, confirmation (AID 602473); format: functional; conditions: read-out: EC50_Mean
T1 sequence (Q13324 whole entry): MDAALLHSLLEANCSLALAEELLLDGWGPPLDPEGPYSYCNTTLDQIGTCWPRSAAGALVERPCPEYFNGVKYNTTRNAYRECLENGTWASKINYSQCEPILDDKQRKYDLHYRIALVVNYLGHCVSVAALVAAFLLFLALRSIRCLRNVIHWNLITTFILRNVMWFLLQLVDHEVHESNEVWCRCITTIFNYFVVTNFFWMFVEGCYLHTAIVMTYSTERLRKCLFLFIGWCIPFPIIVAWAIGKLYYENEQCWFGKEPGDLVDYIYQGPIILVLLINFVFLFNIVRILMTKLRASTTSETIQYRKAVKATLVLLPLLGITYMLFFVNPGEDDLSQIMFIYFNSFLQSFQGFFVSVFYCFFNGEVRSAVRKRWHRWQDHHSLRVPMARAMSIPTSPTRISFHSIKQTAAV
T1 sequence (P24387 whole entry): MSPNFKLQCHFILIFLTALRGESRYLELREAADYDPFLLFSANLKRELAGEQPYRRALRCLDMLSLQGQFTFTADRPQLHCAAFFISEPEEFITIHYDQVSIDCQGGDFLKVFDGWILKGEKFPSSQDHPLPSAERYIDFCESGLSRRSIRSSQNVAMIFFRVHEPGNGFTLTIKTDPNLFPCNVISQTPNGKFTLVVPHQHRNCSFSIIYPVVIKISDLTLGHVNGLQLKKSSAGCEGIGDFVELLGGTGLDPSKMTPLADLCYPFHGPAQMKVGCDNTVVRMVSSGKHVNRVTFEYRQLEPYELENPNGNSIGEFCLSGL

Cytochrome P450 1A2 = target: T2, Cytochrome P450 1A2 (Homo sapiens, UniProt P05177);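 further: PubChem cytochrome P450 panel assay, CYP1A2 panel member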
T2 sequence (P05177 whole entry): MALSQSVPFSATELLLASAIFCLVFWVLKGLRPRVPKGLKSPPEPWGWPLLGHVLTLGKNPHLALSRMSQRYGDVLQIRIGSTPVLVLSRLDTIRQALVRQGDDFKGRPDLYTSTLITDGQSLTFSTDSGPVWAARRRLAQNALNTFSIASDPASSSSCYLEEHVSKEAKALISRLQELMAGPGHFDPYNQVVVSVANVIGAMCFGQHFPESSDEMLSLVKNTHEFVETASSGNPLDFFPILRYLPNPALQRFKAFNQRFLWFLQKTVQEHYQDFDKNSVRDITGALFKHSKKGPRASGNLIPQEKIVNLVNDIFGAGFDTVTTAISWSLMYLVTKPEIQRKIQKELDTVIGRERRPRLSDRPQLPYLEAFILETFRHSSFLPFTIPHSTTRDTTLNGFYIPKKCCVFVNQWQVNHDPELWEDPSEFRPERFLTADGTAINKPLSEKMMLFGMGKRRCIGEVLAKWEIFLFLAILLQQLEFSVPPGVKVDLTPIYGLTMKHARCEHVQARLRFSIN

[5] = inhibitors of intracellular T. cruzi replication, confirmation, NIH3T3 host cells, beta-gal luminescence (AID 2044); format: functional, cell-based;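 further: intracellular parasites grown in NIH/3T3 mouse fibroblasts as host cells; luminescent beta-galactosidase reporter signal from transgenic T. cruzi replicating inside host cells; inhibitors lower the luminescence signal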
[6] = cytotoxicity toward NIH3T3 fibroblasts, dose response, counter-screen, cell-based, ATP luminescence, mouse fibroblasts (AID 2010); format: functional;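 further: cells exposed to compound for about 90 hours before reading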
[7] = tested on: Streptococcus sp. 'group A'; test: growth inhibition of control SK(-) GAS strain, dose response, counter-screen for streptokinase expression inhibitor project, luminescence, kanamycin, BacTiterGlo, confirmation (AID 1900); format: functional, organism-based
Streptococcus = test: Group A Streptococcus viability loss, dose response, counter-screen for streptokinase expression inhibitor project, luminescence, BacTiterGlo (AID 1915); format: functional, organism-based;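 further: potency for reduction of bacterial viability or growth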
Cytochrome P450 2D6 = Cytochrome P450 2D6 (Homo sapiens, UniProt P10635);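 further: CYP2D6 member of a cytochrome P450 panel assay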
Sequence of Cytochrome P450 2D6 (P10635 whole entry): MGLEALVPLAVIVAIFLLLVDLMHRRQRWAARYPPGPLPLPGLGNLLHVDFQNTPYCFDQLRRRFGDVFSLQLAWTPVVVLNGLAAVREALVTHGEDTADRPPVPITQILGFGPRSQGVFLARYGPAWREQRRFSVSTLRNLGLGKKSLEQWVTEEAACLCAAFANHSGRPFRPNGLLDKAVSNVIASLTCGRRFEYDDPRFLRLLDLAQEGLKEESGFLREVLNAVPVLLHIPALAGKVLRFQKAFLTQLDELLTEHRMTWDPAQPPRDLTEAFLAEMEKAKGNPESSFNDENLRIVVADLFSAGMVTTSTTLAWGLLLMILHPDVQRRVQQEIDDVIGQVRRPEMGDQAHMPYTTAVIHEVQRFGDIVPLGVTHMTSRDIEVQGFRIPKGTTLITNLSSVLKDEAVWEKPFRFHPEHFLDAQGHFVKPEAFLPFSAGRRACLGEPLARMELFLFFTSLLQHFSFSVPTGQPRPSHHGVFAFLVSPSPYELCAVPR

Streptokinase A = target: T3, Streptokinase A (Streptococcus pyogenes serotype M1, UniProt P10520); test: S. pyogenes streptokinase expression inhibitors, potency, dose response, plasminogen activation absorbance, OD405 (AID 1914); format: functional, Streptococcus pyogenes M1 GAS;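 further: secreted streptokinase activity via plasminogen activation per viability signal from cell pellet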
T3 sequence (P10520 whole entry): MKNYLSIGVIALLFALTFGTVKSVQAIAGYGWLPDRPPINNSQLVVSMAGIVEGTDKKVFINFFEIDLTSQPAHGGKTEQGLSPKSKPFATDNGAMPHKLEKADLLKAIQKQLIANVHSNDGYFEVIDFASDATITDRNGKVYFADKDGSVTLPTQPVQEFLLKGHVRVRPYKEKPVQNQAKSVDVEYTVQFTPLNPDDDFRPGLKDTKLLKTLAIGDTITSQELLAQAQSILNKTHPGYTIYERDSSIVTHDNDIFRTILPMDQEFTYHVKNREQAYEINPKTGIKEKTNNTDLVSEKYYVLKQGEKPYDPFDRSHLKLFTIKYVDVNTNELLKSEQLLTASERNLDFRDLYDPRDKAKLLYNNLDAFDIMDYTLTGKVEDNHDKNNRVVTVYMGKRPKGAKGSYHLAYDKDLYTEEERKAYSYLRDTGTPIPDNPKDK

[8] = target: FAD-linked sulfhydryl oxidase ALR (Homo sapiens, UniProt P55789); test: inhibitors of human ALR sulfhydryl oxidase, dose response, biochemical, H2O2 detection, luminescence, cherry-pick (AID 493248)
Sequence of FAD-linked sulfhydryl oxidase ALR (P55789 whole entry): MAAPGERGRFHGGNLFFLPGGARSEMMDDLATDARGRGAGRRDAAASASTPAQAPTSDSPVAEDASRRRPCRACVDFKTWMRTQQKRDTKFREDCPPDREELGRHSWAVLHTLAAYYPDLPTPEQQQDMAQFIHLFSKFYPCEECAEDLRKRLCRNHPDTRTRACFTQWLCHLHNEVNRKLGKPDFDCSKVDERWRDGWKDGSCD

[9] = target: T4, Rac GTPase-activating protein 1 (Homo sapiens, UniProt Q9H0H5); test: MgcRacGAP GTPase-activating activity inhibitors, confirmation, biochemical, ADP Hunter fluorescence, primary and confirmatory (AID 624330); format: functional
T4 sequence (Q9H0H5 whole entry): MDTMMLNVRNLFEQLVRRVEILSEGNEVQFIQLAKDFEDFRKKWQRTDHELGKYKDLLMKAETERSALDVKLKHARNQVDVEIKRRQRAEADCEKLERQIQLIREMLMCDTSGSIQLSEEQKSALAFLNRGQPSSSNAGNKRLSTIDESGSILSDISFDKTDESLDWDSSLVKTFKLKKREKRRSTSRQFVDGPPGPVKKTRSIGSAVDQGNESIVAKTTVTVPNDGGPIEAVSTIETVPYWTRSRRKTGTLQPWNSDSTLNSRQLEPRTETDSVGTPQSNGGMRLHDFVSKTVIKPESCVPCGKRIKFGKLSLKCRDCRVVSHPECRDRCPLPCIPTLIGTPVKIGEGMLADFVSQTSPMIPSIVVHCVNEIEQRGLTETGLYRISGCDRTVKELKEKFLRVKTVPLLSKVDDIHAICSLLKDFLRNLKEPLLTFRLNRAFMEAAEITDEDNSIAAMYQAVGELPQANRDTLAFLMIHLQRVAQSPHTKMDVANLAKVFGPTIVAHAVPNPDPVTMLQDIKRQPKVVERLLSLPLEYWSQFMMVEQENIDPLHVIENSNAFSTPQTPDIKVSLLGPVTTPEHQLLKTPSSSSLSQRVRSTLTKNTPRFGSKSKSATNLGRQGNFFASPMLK

Clc1ccc(CN(Cc2ccccc2)C(c2cccs2)c2nnnn2C2CCCC2)cc1 (stereo unspecified)
EC50 [1]: 53.2 µM (active)
EC50 [2]: 32.8 µM (active)

COc1ccc(C(=O)/C=C(/C)N(C)C)cc1
AC50 (Cytochrome P450 2C19): 11.2 µM (inconclusive)
AC50 (Cytochrome P450 3A4): 5.01 µM (inconclusive)

O=C(CSc1nnc(-c2ccc3c(c2)OCO3)o1)Nc1ncc(Cl)cc1Cl
EC50 [1]: 11.4 µM (active)
EC50 [2]: 9.18 µM (active)

CCOc1ccc(OCc2cccc(C(=O)Nc3ccc(CN4CCCCC4)cc3)c2)cc1
AC50 [3]: 5.46 µM (active)

COc1ccc(C(C(=O)NC2CCCCC2)N(C(=O)CCCC(=O)Nc2ccccn2)c2ccc3c(c2)OCCO3)cc1 (stereo unspecified)
AC50 (Cytochrome P450 2C19): 7.94 µM (inconclusive)
AC50 (Cytochrome P450 2C9): 14.1 µM (inconclusive)

Cc1ccc2oc(=O)c(/C=C(\O)c3sc(C)nc3C)nc2c1
EC50 [4]: 7.67 µM (active)

CN1CCN(c2ncnc3ccc(-c4cccc(C#N)c4)cc23)CC1
AC50 (Cytochrome P450 3A4): 25.1 µM (inconclusive)

Cn1c(N)c(C(=O)CSc2ccc3c(c2)OCCO3)c(=O)n(C)c1=O
AC50 (Cytochrome P450 2C9): 39.8 µM (inconclusive)

C=CCc1cccc(CNc2nc3ccccc3n2CCC)c1O
AC50 [3]: 7.58 µM (active)

O=C1N/C(=C\c2ccc(N3CCOCC3)c(F)c2)C(=O)N1Cc1ccccc1
AC50 (Cytochrome P450 1A2): 2 µM (inconclusive)
AC50 (Cytochrome P450 3A4): 0.794 µM (inconclusive)

COc1cc2c(c(OC)c1OC)-c1ccc(O)c(=O)cc1[C@H](N)CC2
AC50 (Cytochrome P450 3A4): 3.16 µM (inconclusive)

CC1CN(CCCCOc2cccc(Oc3ccccc3)c2)CC(C)O1 (stereo unspecified)
EC50 [5]: 1.01 µM (active)
EC50 [6]: > 60 µM (inconclusive)
AC50 [3]: 13.3 µM (active)

CN(C)C(=O)c1ccc(-c2cncnc2Nc2ccccc2)cc1
AC50 (Cytochrome P450 1A2): 31.6 µM (inconclusive)
AC50 (Cytochrome P450 3A4): 5.01 µM (inconclusive)

COC(=O)c1sccc1NC(=O)c1cc(-c2cccc(C)c2)nc2ccccc12
EC50 [1]: 6.74 µM (active)
EC50 [2]: 8.24 µM (active)

C[C@H](C(=O)c1ccncc1)c1ccccn1
AC50 (Cytochrome P450 3A4): 3.98 µM (inconclusive)

CCc1cc2ccc(C)cc2nc1SCC(=O)c1ccc(NC(C)=O)cc1
AC50 [3]: 3.68 µM (active)

CC/C(=C\C1CCCCC1)C(NP(=O)(c1ccccc1)c1ccccc1)c1ccccc1 (stereo unspecified)
EC50 [7]: 1.68 µM (active)
EC50 (Streptococcus): 2.26 µM (active)
AC50 [3]: 2.58 µM (active)

Cn1c(C(=O)NCCCN2CCN(c3ccccc3F)CC2)cc2c(=O)n(C)c3ccccc3c21
EC50 [1]: 17.2 µM (active)
EC50 [2]: 17.7 µM (active)

Brc1ccccc1OCCOCCOc1cccc2cccnc12
AC50 (Cytochrome P450 2C19): 3.16 µM (inconclusive)
AC50 (Cytochrome P450 3A4): 39.8 µM (inconclusive)
AC50 (Cytochrome P450 2C9): 11.2 µM (inconclusive)

CCCSc1nc(SCC(=O)NCc2ccccc2)c2c3c(sc2n1)COC(C)(CC)C3 (stereo unspecified)
AC50 (Cytochrome P450 3A4): 7.08 µM (inconclusive)

COc1cccc(-c2cc(C(F)(F)F)nc(N3CCN(c4ccccc4)CC3)n2)c1
AC50 (Cytochrome P450 2C9): 0.631 µM (inconclusive)

CC(=O)N1CCC2(CCCN(Cc3nccs3)C2)CC1
AC50 (Cytochrome P450 2D6): 15.8 µM (inconclusive)
AC50 (Cytochrome P450 3A4): 39.8 µM (inconclusive)

CCc1cc2c(SCC(=O)Nc3ccc(Cl)cn3)ncnc2s1
EC50 [1]: 31.9 µM (active)
EC50 [2]: 71.3 µM (active)

CCCn1c(=O)c(C(=O)NNC(=O)c2ccc(Cl)cc2Cl)c(O)c2ccccc21
EC50 [4]: 4.01 µM (active)

COc1ccc(CNc2ccnc(-c3c(C)noc3C)n2)c(OC)c1
AC50 (Cytochrome P450 2D6): 39.8 µM (inconclusive)
AC50 (Cytochrome P450 2C9): 1 µM (inconclusive)

CCc1ccc2c(c1)[C@H]1OCC[C@H]1[C@@H](c1cccs1)N2
AC50 [3]: 2.97 µM (active)

CC1(C)CC(=O)C(C2C3=C(CC(C)(C)CC3=O)Oc3c(Br)cc(Br)cc32)=C(O)C1 (stereo unspecified)
EC50 [7]: 4.66 µM (active)
EC50 (Streptokinase A): 24.8 µM (active)
EC50 (Streptococcus): 12.2 µM (active)
EC50 [4]: 10.3 µM (active)

Cc1ccc(C)c2sc(NC(=O)c3ccc(N4C(=O)CCC4=O)cc3)nc12
EC50 [4]: > 53 µM (inactive)

CCOC(=O)/C(=C/C=C1\Sc2ccccc2N1CC)C(C)=O
EC50 [4]: 11.5 µM (active)

Cc1ccc(N2CC(C(=O)Nc3cc(C)on3)CC2=O)cc1 (stereo unspecified)
AC50 (Cytochrome P450 3A4): 22.4 µM (inconclusive)
AC50 (Cytochrome P450 2C9): 11.2 µM (inconclusive)

COC(=O)c1sccc1-c1ccc(C(=O)Nc2cccc(Cl)c2)o1
AC50 (Cytochrome P450 3A4): 28.2 µM (inconclusive)

COc1ccc(CSC2=C(C#N)C(=O)NC3(CCCCC3)S2)cc1
AC50 (Cytochrome P450 2C9): 3.16 µM (inconclusive)

O=C(NCCc1ccccc1)c1cc(-c2ccccc2)c(N2CCOCC2)s1
AC50 [3]: 3.48 µM (active)

Cc1ccc(CSc2nnc(-c3ccncc3)n2CC2CCCO2)cc1 (stereo unspecified)
AC50 (Cytochrome P450 3A4): 1.41 µM (inconclusive)

COc1ccc(CCNC(=O)CCN2C(=O)COc3ccc(C)cc32)cc1OC
AC50 (Cytochrome P450 2D6): 39.8 µM (inconclusive)
AC50 (Cytochrome P450 2C9): 28.2 µM (inconclusive)

C/C(=N\Nc1nc2ccccc2[nH]1)c1cccs1
AC50 [8]: 0.02 µM (active)
IC50 [9]: 26.8 µM (active)

CC(C)C[C@H](NC(=O)N1CCCCCC1)C(=O)N[C@H](Cc1cn(C)c2ccccc12)C(=O)N[C@H](Cc1ccccn1)C(=O)O
AC50 (Cytochrome P450 1A2): 39.8 µM (inconclusive)
AC50 (Cytochrome P450 3A4): 15.8 µM (inconclusive)

COc1ccc(CNc2ncnc3ccc(-c4cccc(C#N)c4)cc23)c(OC)c1
AC50 (Cytochrome P450 2C9): 0.0158 µM (inconclusive)

Cc1ccc(NC(=O)c2cc([N+](=O)[O-])ccc2NCc2cccnc2)cc1Cl
EC50 [5]: 1.82 µM (active)
EC50 [6]: > 60 µM (not active)
AC50 (Cytochrome P450 2D6): 0.794 µM (inconclusive)
AC50 (Cytochrome P450 2C9): 0.251 µM (inconclusive)
